Data reported in patent EP4745131A1, “PYRIMIDINAMINE NUAK INHIBITOR AS WELL AS PREPARATION METHOD THEREFOR AND USE THEREOF” (Technoderma Medicines Inc., priority 2023, dated 2025).

Columns and labels:
NUAK1 = target: T1, NUAK1 (Homo sapiens, UniProt O60285); assay: Kinase activity assay, P81 filter paper binding hot-spot technique (33P-ATP, CHKtide substrate); type: biochemical; conditions: final concentration of NUAK1 10 nM; 20 µM CHKtide substrate; 33P-labeled ATP; 2 hours at room temperature; read-out: IC50 (nM) of Test Compounds against NUAK1
T1 sequence (O60285 1-661): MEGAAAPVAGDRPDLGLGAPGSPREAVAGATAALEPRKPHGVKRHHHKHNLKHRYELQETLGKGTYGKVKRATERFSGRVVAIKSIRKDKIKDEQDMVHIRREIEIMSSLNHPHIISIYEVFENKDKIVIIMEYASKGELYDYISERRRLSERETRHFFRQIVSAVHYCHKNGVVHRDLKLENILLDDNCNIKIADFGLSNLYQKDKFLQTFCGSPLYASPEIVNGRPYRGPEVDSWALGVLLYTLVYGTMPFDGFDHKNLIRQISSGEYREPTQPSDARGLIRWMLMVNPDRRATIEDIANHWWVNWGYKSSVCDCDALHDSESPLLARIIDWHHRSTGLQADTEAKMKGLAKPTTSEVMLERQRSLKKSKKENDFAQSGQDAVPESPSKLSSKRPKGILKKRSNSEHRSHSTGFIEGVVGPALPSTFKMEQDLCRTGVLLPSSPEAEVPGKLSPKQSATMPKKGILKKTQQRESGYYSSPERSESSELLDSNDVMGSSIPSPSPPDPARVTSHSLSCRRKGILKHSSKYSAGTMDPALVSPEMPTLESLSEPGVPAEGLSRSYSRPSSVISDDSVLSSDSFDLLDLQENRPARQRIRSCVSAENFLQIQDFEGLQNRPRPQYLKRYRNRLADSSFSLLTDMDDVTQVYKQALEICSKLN
Description: (§1) The inhibitory activity of the pyrimidinamine small molecules involved in the present application against NUAK1 and NUAK2 kinases was determined using a kinase activity assay based on the P81 filter paper binding hot-spot technique (Nat Biotechnol. 2011, 29:1039). A brief description is as follows:
(§2) The assay buffer system contained 20 mM Hepes (pH 7.5), 10 mM MgCl2, 1 mM EGTA, 0.01% Brij35 (L23 polyoxyethylene lauryl ether), 0.02 mg/mL BSA (bovine serum albumin), 0.1 mM Na3VO4, 2 mM DTT, and 1% DMSO.
(§3) • 1. A 20 µM substrate solution was prepared with freshly prepared test buffer and CHKtide peptide fragments (Sanchez Y. Science. 1997, 277: 1497-1501) were used as a substrate. • 2. Kinases were added and mixed gently (a final concentration of NUAK1 was 10 nM; and a final concentration of NUAK2 was 50 nM). • 3. Test compounds dissolved in 100% DMSO were each added to the above kinase reaction mixture solution via Acoustic Droplet Ejection (Echo550; nanoliter) and the mixture was incubated for 5 minutes at room temperature. • 4. ^33P-labeled ATP (a ratio of unlabeled ATP to labeled ATP was 25:1 or 2.5:1) was added. • 5. The mixture was incubated for 2 hours at room temperature. • 6. Kinase activity was tested using the P81 filter paper combined with hotspot technology.
(§4) The IC50 values of the test compounds against NUAK1/NUAK2 were calculated according to the above test. For specific results, see Table 1.
(§5) The IC50 values were calculated by using a formula derived from sigmoidal dose-response curve (variable slope): Y = Bottom + (Top-Bottom)/(1+10^((LogEC50-X)*Slope, where X is the logarithm of compound concentration, Y is the response (inhibition rate of kinase activity), and Y rises from bottom to top along the sigmoidal curve as the concentration increases. Table 1: IC50 (nM) of Test Compounds of the Present Application against NUAK1/NUAK2

NUAK2 = target: T2, NUAK2 (Homo sapiens, UniProt Q9H093); assay: as above; type: biochemical; conditions: final concentration of NUAK2 50 nM; 20 µM CHKtide substrate; 33P-labeled ATP; 2 hours at room temperature; read-out: IC50 (nM) of Test Compounds against NUAK2
T2 sequence (Q9H093 1-628): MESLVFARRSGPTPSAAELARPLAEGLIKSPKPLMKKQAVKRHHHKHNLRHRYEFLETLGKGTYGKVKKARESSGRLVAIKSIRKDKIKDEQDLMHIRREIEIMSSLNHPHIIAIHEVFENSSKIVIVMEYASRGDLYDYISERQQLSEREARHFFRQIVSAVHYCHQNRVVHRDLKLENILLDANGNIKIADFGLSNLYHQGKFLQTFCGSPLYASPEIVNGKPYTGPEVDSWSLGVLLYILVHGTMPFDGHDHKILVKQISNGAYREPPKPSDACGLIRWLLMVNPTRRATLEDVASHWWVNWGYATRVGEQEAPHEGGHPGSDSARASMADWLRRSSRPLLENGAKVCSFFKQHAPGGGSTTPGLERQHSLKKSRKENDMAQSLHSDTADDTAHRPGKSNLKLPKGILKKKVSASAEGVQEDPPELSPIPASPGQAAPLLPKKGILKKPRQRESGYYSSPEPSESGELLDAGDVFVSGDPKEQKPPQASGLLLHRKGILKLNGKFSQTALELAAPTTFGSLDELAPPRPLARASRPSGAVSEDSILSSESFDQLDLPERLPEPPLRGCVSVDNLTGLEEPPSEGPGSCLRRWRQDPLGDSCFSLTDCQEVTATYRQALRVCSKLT
Description: as §1, §2, §3, §4, §5

COc1cc(C2CCNCC2)ccc1Nc1nccc(-n2ccc(C(=O)NCC#N)c2)n1 [TDM-181152, N-(Cyanomethyl)-1-(2-((2-methoxy-4-(piperidin-4-yl)phenyl)amino)pyrimidin-4-yl)-1H-pyrrole-3-carboxamide]
IC50 (NUAK1): 977 nM

COc1cc(C2CCN(C)C2)ccc1Nc1nccc(-n2ccc(C(=O)NCC#N)c2)n1 (centres unmarked) [TDM-181158]
IC50 (NUAK1): 394 nM

CN1CCN(c2ccc(Nc3nccc(-n4ccc(C(=O)NCC#N)c4)n3)cc2)CC1 [TDM-181147, N-(Cyanomethyl)-1-(2-((4-(4-methylpiperazin-1-yl)phenyl)amino)pyrimidin-4-yl)-1H-pyrrole-3-carboxamide]
IC50 (NUAK1): 19 nM
IC50 (NUAK2): 77 nM

COc1cc(N2CCN(C)CC2)ccc1Nc1nccc(-n2cc(C(=O)NCC#N)cn2)n1 [TDM-181139, N-(Cyanomethyl)-1-(2-((2-methoxy-4-(4-methylpiperazin-1-yl)phenyl)amino)pyrimidin-4-yl)-1H-pyrazole-4-carboxamide]
IC50 (NUAK1): 474 nM
IC50 (NUAK2): 991 nM

COc1cc(N2CCN(C)CC2)ccc1Nc1ncc(Cl)c(-n2ccc(C(=O)NCC#N)c2)n1 [TDM-181155, 1-(5-Chloro-2-((2-methoxy-4-(4-methylpiperazin-1-yl)phenyl)amino)pyrimidin-4-yl)-N-(cyanomethyl)-1H-pyrrole-3-carboxamide]
IC50 (NUAK1): 43 nM
IC50 (NUAK2): 69 nM

CCCS(=O)(=O)Nc1cnn(-c2nc(Nc3cnc(C4CCNCC4)s3)ncc2Cl)c1 [TDM-181179, N-(1-(5-Chloro-2-((2-(piperidin-4-yl)thiazol-5-yl)amino)pyrimidin-4-yl)-1H-pyrazol-4-yl)propane-1-sulfonamide]
IC50 (NUAK1): 6 nM
IC50 (NUAK2): 42 nM

1-(5-chloro-2-((2-methoxy-4-(piperidin-4-yl)phenyl)amino)pyrimidin-4-yl)-N-(cyanomethyl)-1H-pyrrole-3-carboxamide [TDM-181157]
IC50 (NUAK1): 194 nM
IC50 (NUAK2): 487 nM

N#CCNC(=O)c1cnn(-c2ccnc(Nc3cnn(C4CCNCC4)c3)n2)c1 [TDM-181140, N-(Cyanomethyl)-1-(2-((1-(piperidin-4-yl)-1H-pyrazol-4-yl)amino)pyrimidin-4-yl)-1H-pyrazole-4-carboxamide]
IC50 (NUAK1): 305 nM
IC50 (NUAK2): 210 nM

COc1cc(C2CCN(C)CC2)ccc1Nc1nccc(-n2ccc(C(=O)NCC#N)c2)n1 [TDM-181156, N-(cyanomethyl)-1-(2-((2-methoxy-4-(1-methylpiperidin-4-yl)phenyl)amino)pyrimidin-4-yl)-1H-pyrrole-3-carboxamide]
IC50 (NUAK1): 607 nM

COc1cc(N2CCN(C)CC2)ccc1Nc1nccc(-n2ccc(C(=O)NCC#N)c2)n1 [TDM-181146, N-(Cyanomethyl)-1-(2-((2-methoxy-4-(4-methylpiperazin-1-yl)phenyl)amino)pyrimidin-4-yl)-1H-pyrrole-3-carboxamide]
IC50 (NUAK1): 260 nM
IC50 (NUAK2): 602 nM

N#CCNC(=O)c1ccn(-c2ccnc(Nc3cnn(C4CCNCC4)c3)n2)c1 [TDM-181153, N-(Cyanomethyl)-1-(2-((1-(piperidin-4-yl)-1H-pyrazol-4-yl)amino)pyrimidin-4-yl)-1H-pyrrole-3-carboxamide]
IC50 (NUAK1): 84 nM
IC50 (NUAK2): 107 nM

CN1CCN(c2ccc(Nc3ncc(Cl)c(-n4ccc(C(=O)NCC5CC5)c4)n3)cc2)CC1 [TDM-181171, 1-(5-Chloro-2-((4-(4-methylpiperazin-1-yl)phenyl)amino)pyrimidin-4-yl)-N-(cyclopropylmethyl)-1H-pyrrole-3-carboxamide]
IC50 (NUAK1): 9 nM
IC50 (NUAK2): 50 nM

O=C(Nc1cnn(-c2ccnc(Nc3cnn(C4CCNCC4)c3)n2)c1)[C@@H]1CC1(F)F [TDM-181159, 2,2-Difluoro-N-(1-2-((1-(piperidin-4-yl)-1H-pyrazol-4-ylamino)pyrimidin-4-yl)-1H-pyrazol-4-yl)cyclopropane-1-carboxamide]
IC50 (NUAK1): 337 nM
IC50 (NUAK2): 419 nM

CCCS(=O)(=O)Nc1cnn(-c2nc(Nc3cnn(C4CCNCC4)c3)ncc2Cl)c1 [TDM-181177, N-(1-(5-Chloro-2-(1-(piperidin-4-yl)-1H-pyrazol-4-ylamino)pyrimidin-4-yl)-1H-pyrazol-4-yl)propane-1-sulfonamide]
IC50 (NUAK1): 9 nM
IC50 (NUAK2): 72 nM

CN1CCC(n2cc(Nc3nccc(-c4cnn(C(=O)C5CC5)c4)n3)cn2)CC1 [TDM-181169, Cyclopropyl(4-(2-((1-(1-methylpiperidin-4-yl)-1H-pyrazol-4-yl)amino)pyrimidin-4-yl)-1H-pyrazol-1-yl)methanone]
IC50 (NUAK1): 209 nM
IC50 (NUAK2): 495 nM

CNC(=O)c1ccn(-c2nc(Nc3ccc(N4CCN(C)CC4)cc3)ncc2Cl)c1 [TDM-181170, 1-(5-Chloro-2-((4-(4-methylpiperazin-1-yl)phenyl)amino)pyrimidin-4-yl)-N-methyl-1H-pyrrole-3-carboxamide]
IC50 (NUAK1): 14 nM
IC50 (NUAK2): 78 nM

N#CCNC(=O)c1ccn(-c2ccnc(Nc3ccc(C4CCNCC4)cc3)n2)c1 [TDM-181154, N-(cyanomethyl)-1-(2-((4-(piperidin-4-yl)phenyl)amino)pyrimidin-4-yl)-1H-pyrrole-3-carboxamide]
IC50 (NUAK1): 58 nM
IC50 (NUAK2): 239 nM

2-(1-(piperidin-4-yl)-1H-pyrazol-4-yl)aminopyrimidin-4-yl)-1H-pyrazol-4-ylpropanesulfonamide [TDM-181135]
IC50 (NUAK1): 34 nM
IC50 (NUAK2): 265 nM

CCS(=O)(=O)N1CCC(n2cc(-c3ccnc(Nc4cnn(C5CCNCC5)c4)n3)cn2)C1 (centres unmarked) [TDM-181134, 4-(1-(1-(Ethylsulfonyl)pyrrolidin-3-yl)-1H-pyrazol-4-yl)-N-(1-(piperidin-4-yl)-1H-pyrazol-4-yl)pyrimidin-2-amine]
IC50 (NUAK1): 122 nM
IC50 (NUAK2): 622 nM
